{"source": "paper PMC7587356", "about": "“High-Throughput Screening for Inhibitors of the SARS-CoV-2 Protease Using a FRET-Biosensor” (Molecules, 2020)", "target": "SARS-CoV-2 3CLpro (Severe acute respiratory syndrome coronavirus 2, UniProt P0DTD1)", "test": "biochemical", "format": "biochemical", "design": "Replicate_1 / Replicate_2 / mean / mean (LOPAC_screen_w_protease): unit not given here", "details": "for inhibition at 5 µM: 4 h", "key": {"[1]": {"details": "sheet LOPAC_screen_w_protease, LOPAC1280 primary screen at 5 µM, with protease, mean of the two replicates"}, "[2]": {"details": "sheet LOPAC_screen_w_protease, LOPAC1280 primary screen at 5 µM, with protease, replicate 1"}, "[3]": {"details": "sheet LOPAC_screen_w_protease, LOPAC1280 primary screen at 5 µM, with protease, replicate 2"}, "[4]": {"details": "LOPAC1280 primary screen with protease, 5 µM compound, mean of two replicates"}, "[5]": {"details": "LOPAC1280 primary screen with protease, 5 µM compound, replicate 1"}, "[6]": {"details": "LOPAC1280 primary screen with protease, 5 µM compound, replicate 2"}, "[7]": {"details": "sheet LOPAC_screen_w_protease, primary screen of LOPAC1280 at 5 µM with protease, mean of the two replicates"}, "[8]": {"details": "sheet LOPAC_screen_w_protease, primary screen of LOPAC1280 at 5 µM with protease, replicate 1"}, "[9]": {"details": "sheet LOPAC_screen_w_protease, primary screen of LOPAC1280 at 5 µM with protease, replicate 2"}, "[10]": {"details": "LOPAC1280 primary screen with protease, 5 µM compound, mean of the two replicates"}, "[11]": {"details": "sheet LOPAC_screen_w_protease, LOPAC1280 primary screen with protease, 5 µM compound, mean of the two replicates"}, "[12]": {"details": "sheet LOPAC_screen_w_protease, LOPAC1280 primary screen with protease, 5 µM compound, replicate 1"}, "[13]": {"details": "sheet LOPAC_screen_w_protease, LOPAC1280 primary screen with protease, 5 µM compound, replicate 2"}, "[14]": {"details": "sheet LOPAC_screen_w_protease, primary screen with protease, mean of two replicates"}, "[15]": {"details": "sheet LOPAC_screen_w_protease, primary screen with protease, replicate 1"}, "[16]": {"details": "sheet LOPAC_screen_w_protease, primary screen with protease, replicate 2"}}, "note": "Where a name gives a salt, the structure may show the parent alone. Read-outs that look alike come from different tables or passages of the source."}
{"compound": "c1ccc(-c2ccccn2)nc1", "note": "[2,2'-Bipyridyl]", "values": [{"measurement": "mean", "setting": "[1]", "value": 0.8479}, {"measurement": "Replicate_1", "setting": "[2]", "value": 3.924}, {"measurement": "Replicate_2", "setting": "[3]", "value": -2.2286}]}
{"compound": "CC(=O)C(C)=NO", "note": "[2,3-Butanedione monoxime]", "values": [{"measurement": "mean (LOPAC_screen_w_protease)", "setting": "[4]", "value": 1.644}, {"measurement": "Replicate_1 (LOPAC_screen_w_protease)", "setting": "[5]", "value": 1.791}, {"measurement": "Replicate_2 (LOPAC_screen_w_protease)", "setting": "[6]", "value": 1.497}]}
{"compound": "CC(=O)C(C)=O", "note": "[2,3-Butanedione]", "values": [{"measurement": "inhibition at 5 µM", "setting": "sheet LOPAC_screen_w_protease, LOPAC1280 primary screen at 5 µM, with protease, mean of the two replicates, read-out: mean", "value": 0.702, "unit": "%"}, {"measurement": "inhibition at 5 µM", "setting": "sheet LOPAC_screen_w_protease, LOPAC1280 primary screen at 5 µM, with protease, replicate 1, read-out: Replicate_1", "value": 1.88, "unit": "%"}, {"measurement": "inhibition at 5 µM", "setting": "sheet LOPAC_screen_w_protease, LOPAC1280 primary screen at 5 µM, with protease, replicate 2, read-out: Replicate_2", "value": -0.473, "unit": "%"}]}
{"compound": "COC1=C(OC)C(=O)c2ccccc2C1=O", "note": "[2,3-Dimethoxy-1,4-naphthoquinone]", "values": [{"measurement": "mean", "setting": "[1]", "value": 0.8524}, {"measurement": "Replicate_1", "setting": "[2]", "value": 0.1505}, {"measurement": "Replicate_2", "setting": "[3]", "value": 1.554}]}
{"compound": "Nc1cc(=O)[nH]c(N)n1", "note": "[2,6-Diamino-4-pyrimidinone]", "values": [{"measurement": "mean", "setting": "[7]", "value": 3.421}, {"measurement": "Replicate_1", "setting": "[8]", "value": 3.441}, {"measurement": "Replicate_2", "setting": "[9]", "value": 3.4}]}
{"compound": "O=C[C@H](Cl)[C@@H](O)[C@H](O)[C@H](O)CO", "note": "[2-Chloro-2-deoxy-D-glucose]", "values": [{"measurement": "mean (LOPAC_screen_w_protease)", "setting": "[10]", "value": 1.752}, {"measurement": "Replicate_1 (LOPAC_screen_w_protease)", "setting": "[5]", "value": 1.144}, {"measurement": "Replicate_2 (LOPAC_screen_w_protease)", "setting": "[6]", "value": 2.361}]}
{"compound": "Nc1nc(Cl)nc2c1ncn2[C@@H]1O[C@H](CO)[C@@H](O)[C@H]1O", "note": "[2-Chloroadenosine]", "values": [{"measurement": "mean (LOPAC_screen_w_protease)", "setting": "[4]", "value": 1.409}, {"measurement": "Replicate_1 (LOPAC_screen_w_protease)", "setting": "[5]", "value": 1.21}, {"measurement": "Replicate_2 (LOPAC_screen_w_protease)", "setting": "[6]", "value": 1.608}]}
{"compound": "NCC(O)(CS(=O)(=O)O)c1ccc(Cl)cc1", "note": "(centres unmarked) [2-Hydroxysaclofen]", "values": [{"measurement": "mean", "setting": "[1]", "value": 0.8279}, {"measurement": "Replicate_2", "setting": "[3]", "value": -0.8627}]}
{"compound": "COc1ccc2[nH]c(I)c(CCNC(C)=O)c2c1", "note": "[2-Iodomelatonin]", "values": [{"measurement": "mean", "setting": "[11]", "value": 5.613}, {"measurement": "Replicate_1", "setting": "[12]", "value": 6.946}, {"measurement": "Replicate_2", "setting": "[13]", "value": 4.28}]}
{"compound": "Cc1[nH]c2ccc(O)cc2c1CCN.O=C(O)/C=C\\C(=O)O", "note": "[2-Methyl-5-hydroxytryptamine maleate]", "values": [{"measurement": "mean", "setting": "[11]", "value": 5.124}, {"measurement": "Replicate_1", "setting": "[12]", "value": 4.629}, {"measurement": "Replicate_2", "setting": "[13]", "value": 5.62}]}
{"compound": "Nc1nc(Nc2ccccc2)nc2c1ncn2[C@@H]1O[C@H](CO)[C@@H](O)[C@H]1O", "note": "[2-Phenylaminoadenosine]", "values": [{"measurement": "mean", "setting": "sheet LOPAC_screen_w_protease, primary screen with protease, 5 µM, mean of two replicates", "value": -0.1756}, {"measurement": "Replicate_1", "setting": "sheet LOPAC_screen_w_protease, primary screen with protease, 5 µM, replicate 1", "value": -0.3497}, {"measurement": "Replicate_2", "setting": "sheet LOPAC_screen_w_protease, primary screen with protease, 5 µM, replicate 2", "value": -0.001377}]}
{"compound": "N/C(=N\\C(=O)c1nc(Cl)c(N)nc1N)NCc1ccc(Cl)c(Cl)c1", "note": "[3',4'-Dichlorobenzamil]", "values": [{"measurement": "mean", "setting": "[7]", "value": 4.038}, {"measurement": "Replicate_1", "setting": "[8]", "value": 5.158}, {"measurement": "Replicate_2", "setting": "[9]", "value": 2.918}]}
{"compound": "Cc1cn(C2CC(N=[N+]=[N-])C(CO)O2)c(=O)[nH]c1=O", "note": "(centres unmarked) [3'-Azido-3'-deoxythymidine]", "values": [{"measurement": "inhibition at 5 µM", "setting": "sheet LOPAC_screen_w_protease, LOPAC1280 at 5 µM, mean of two replicates, read-out: mean", "value": 1.04, "unit": "%"}, {"measurement": "inhibition at 5 µM", "setting": "sheet LOPAC_screen_w_protease, LOPAC1280 at 5 µM, replicate 1, read-out: Replicate_1", "value": 1.75, "unit": "%"}, {"measurement": "inhibition at 5 µM", "setting": "sheet LOPAC_screen_w_protease, LOPAC1280 at 5 µM, replicate 2, read-out: Replicate_2", "value": 0.327, "unit": "%"}]}
{"compound": "O=C(O)Cc1ccc(O)c(O)c1", "note": "[3,4-Dihydroxyphenylacetic acid]", "values": [{"measurement": "inhibition at 5 µM", "setting": "read-out: Replicate_1 (LOPAC screen with protease)", "value": 41.7, "unit": "%"}, {"measurement": "inhibition at 5 µM", "setting": "read-out: Replicate_2 (LOPAC screen with protease)", "value": 44.4, "unit": "%"}, {"measurement": "inhibition at 5 µM", "setting": "read-out: mean (LOPAC screen with protease)", "value": 43.1, "unit": "%"}]}
{"compound": "O=[N+]([O-])c1cc(O)c(O)c([N+](=O)[O-])c1", "note": "[3,5-Dinitrocatechol]", "values": [{"measurement": "mean", "setting": "[14]", "value": 2.373}, {"measurement": "Replicate_1", "setting": "[15]", "value": 3.489}, {"measurement": "Replicate_2", "setting": "[16]", "value": 1.257}]}
{"compound": "C#CCn1c(=O)c2c(ncn2C)n(C)c1=O", "note": "[3,7-Dimethyl-I-propargylxanthine]", "values": [{"measurement": "mean", "setting": "[14]", "value": 2.439}, {"measurement": "Replicate_1", "setting": "[15]", "value": 3.614}, {"measurement": "Replicate_2", "setting": "[16]", "value": 1.263}]}
{"compound": "NCCCS(=O)(=O)O.[Na]", "note": "[3-Amino-1-propanesulfonic acid sodium]", "values": [{"measurement": "mean", "setting": "[11]", "value": 5.742}, {"measurement": "Replicate_1", "setting": "[12]", "value": 6.514}, {"measurement": "Replicate_2", "setting": "[13]", "value": 4.97}]}
{"compound": "N#CCCN.N#CCCN.O=C(O)/C=C/C(=O)O", "note": "[3-Aminopropionitrile fumarate]", "values": [{"measurement": "mean", "setting": "sheet LOPAC_screen_w_protease, LOPAC1280 at 5 µM, mean of two replicates", "value": 0.9446}, {"measurement": "Replicate_1", "setting": "sheet LOPAC_screen_w_protease, LOPAC1280 at 5 µM, replicate 1", "value": 1.551}, {"measurement": "Replicate_2", "setting": "sheet LOPAC_screen_w_protease, LOPAC1280 at 5 µM, replicate 2", "value": 0.3384}]}
{"compound": "NCCCP(=O)(O)O", "note": "[3-Aminopropylphosphonic acid]", "values": [{"measurement": "mean (LOPAC_screen_w_protease)", "setting": "[10]", "value": 1.904}, {"measurement": "Replicate_1 (LOPAC_screen_w_protease)", "setting": "[5]", "value": 3.261}, {"measurement": "Replicate_2 (LOPAC_screen_w_protease)", "setting": "[6]", "value": 0.5459}]}
{"compound": "O=[N+]([O-])c1cccc2c(Br)n[nH]c12", "note": "[3-Bromo-7-nitroindazole]", "values": [{"measurement": "mean (LOPAC_screen_w_protease)", "setting": "[10]", "value": 1.829}, {"measurement": "Replicate_1 (LOPAC_screen_w_protease)", "setting": "[5]", "value": 2.045}, {"measurement": "Replicate_2 (LOPAC_screen_w_protease)", "setting": "[6]", "value": 1.613}]}
{"compound": "NNCc1cccc(O)c1", "note": "[3-Hydroxybenzylhydrazine dihydrochloride]", "values": [{"measurement": "inhibition at 5 µM", "setting": "LOPAC1280 primary screen with protease, 5 µM compound, replicate 1, read-out: Replicate_1 (LOPAC_screen_w_protease)", "value": 3.31, "unit": "%"}, {"measurement": "inhibition at 5 µM", "setting": "LOPAC1280 primary screen with protease, 5 µM compound, replicate 2, read-out: Replicate_2 (LOPAC_screen_w_protease)", "value": 0.839, "unit": "%"}, {"measurement": "mean (LOPAC_screen_w_protease)", "setting": "[10]", "value": 2.074}]}
{"compound": "N[C@@H](Cc1ccc(O)c(I)c1)C(=O)O", "note": "[3-Iodo-L-tyrosine]", "values": [{"measurement": "mean (LOPAC_screen_w_protease)", "setting": "[10]", "value": 1.849}, {"measurement": "Replicate_1 (LOPAC_screen_w_protease)", "setting": "[5]", "value": 1.662}, {"measurement": "Replicate_2 (LOPAC_screen_w_protease)", "setting": "[6]", "value": 2.037}]}
